Laboratory results: ChEMBL document CHEMBL5528027, “Target identification, and optimization of dioxygenated amide derivatives as potent antibacterial agents with FabH inhibitory activity” (Eur J Med Chem, 2024)
In brackets after ≈: the same amount, converted by molar mass.

What was measured:
Erythrocyte = experiment: Hemolytic activity in human erythrocytes assessed as hemolysis by spectrophotometric analysis; assay type: toxicity, cell-based
Streptococcus pneumoniae = experiment: Antibacterial activity against Streptococcus pneumoniae assessed as reduction in bacterial growth measured after 24 hrs by two-fold serial dilution method; assay type: functional
Bacillus subtilis = experiment: Antibacterial activity against Bacillus subtilis assessed as reduction in bacterial growth measured after 24 hrs by two-fold serial dilution method; assay type: functional
[1] = Cytotoxicity against mouse NIH3T3 cells incubated for 24 hrs by MTT analysis; assay type: toxicity, cell-based
Staphylococcus aureus = experiment: Antibacterial activity against Staphylococcus aureus assessed as reduction in bacterial growth measured after 24 hrs by two-fold serial dilution method; assay type: functional
[2] = target: T1, Beta-ketoacyl-[acyl-carrier-protein] synthase III (Escherichia coli K-12, UniProt P0A6R0); experiment: Inhibition of Escherichia coli FabH
T1 sequence (P0A6R0 whole entry): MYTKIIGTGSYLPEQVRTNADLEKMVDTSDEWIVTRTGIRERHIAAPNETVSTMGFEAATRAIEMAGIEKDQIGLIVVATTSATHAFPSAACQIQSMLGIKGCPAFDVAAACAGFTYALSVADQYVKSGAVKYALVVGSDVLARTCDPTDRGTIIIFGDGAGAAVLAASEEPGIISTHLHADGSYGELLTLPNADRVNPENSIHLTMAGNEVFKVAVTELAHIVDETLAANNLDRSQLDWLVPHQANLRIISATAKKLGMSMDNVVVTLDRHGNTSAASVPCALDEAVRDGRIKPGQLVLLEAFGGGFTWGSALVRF

Klebsiella pneumoniae = experiment: Antibacterial activity against Klebsiella pneumoniae assessed as reduction in bacterial growth measured after 24 hrs by two-fold serial dilution method; assay type: functional
Escherichia coli = experiment: Antibacterial activity against Escherichia coli assessed as reduction in bacterial growth measured after 24 hrs by two-fold serial dilution method; assay type: functional
Pseudomonas aeruginosa = experiment: Antibacterial activity against Pseudomonas aeruginosa assessed as reduction in bacterial growth measured after 24 hrs by two-fold serial dilution method; assay type: functional

Structure (SMILES) | HC30 (Erythrocyte) [µg/mL] | MIC (Streptococcus pneumoniae) [µg/mL] | MIC (Bacillus subtilis) [µg/mL] | IC50 at 24 h [1] [µM] | MIC (Staphylococcus aureus) [µg/mL] | IC50 [2] [µM] | MIC (Klebsiella pneumoniae) [µg/mL] | MIC (Escherichia coli) [µg/mL] | MIC (Pseudomonas aeruginosa) [µg/mL]
O=C(Nc1ccc2cc[nH]c2c1)c1ccc2c(c1)OCCCO2 | > 10 | 12.5 (≈ 40.5 µM) | 12.5 (≈ 40.5 µM) | 198 | 6.25 (≈ 20.3 µM) | 13.1 | 3.13 (≈ 10.2 µM) | 3.13 (≈ 10.2 µM) | 6.25 (≈ 20.3 µM)
O=C(c1ccc2c(c1)OCCCO2)N1CCCC1 |  | > 100 | > 100 |  | > 100 |  | > 100 | > 100 | 50 (≈ 202 µM)
O=C(Nc1ccccn1)c1ccc2c(c1)OCCCO2 |  | > 100 | 25 (≈ 92.5 µM) |  | 50 (≈ 185 µM) |  | 50 (≈ 185 µM) | 12.5 (≈ 46.2 µM) | 50 (≈ 185 µM)
O=C(Nc1cccc2cccnc12)c1ccc2c(c1)OCCCO2 |  | 25 (≈ 78 µM) | 12.5 (≈ 39 µM) |  | 25 (≈ 78 µM) |  | 50 (≈ 156 µM) | 12.5 (≈ 39 µM) | 25 (≈ 78 µM)
O=C(Nc1ccncn1)c1ccc2c(c1)OCCCO2 |  | 50 (≈ 184 µM) | > 100 |  | 50 (≈ 184 µM) |  | > 100 | 50 (≈ 184 µM) | 50 (≈ 184 µM)
O=C(Nc1cccc2ncccc12)c1ccc2c(c1)OCCCO2 |  | 25 (≈ 78 µM) | 50 (≈ 156 µM) |  | 50 (≈ 156 µM) |  | 25 (≈ 78 µM) | 50 (≈ 156 µM) | 25 (≈ 78 µM)
O=C(c1ccc2c(c1)OCCCO2)N1CCN(CCO)CC1 |  | 25 (≈ 81.6 µM) | > 100 |  | 25 (≈ 81.6 µM) |  | > 100 | 50 (≈ 163 µM) | 25 (≈ 81.6 µM)
CC1(CCNC(=O)c2ccc3c(c2)OCCCO3)N=N1 |  |  | 12.5 (≈ 45.4 µM) |  | 6.25 (≈ 22.7 µM) |  |  | 6.25 (≈ 22.7 µM) | 6.25 (≈ 22.7 µM)
O=C(Nc1ccnc2ccccc12)c1ccc2c(c1)OCCCO2 |  | 50 (≈ 156 µM) | 50 (≈ 156 µM) |  | 25 (≈ 78 µM) |  | 50 (≈ 156 µM) | 50 (≈ 156 µM) | 50 (≈ 156 µM)
CC(=O)N1CCC(NC(=O)c2ccc3c(c2)OCCCO3)CC1 | > 10 | 25 (≈ 78.5 µM) | 25 (≈ 78.5 µM) | 132 | 3.13 (≈ 9.83 µM) | 17.5 | 3.13 (≈ 9.83 µM) | 12.5 (≈ 39.3 µM) | 3.13 (≈ 9.83 µM)
O=C(c1ccc2c(c1)OCCCO2)N1CCOCC1 |  | 50 (≈ 190 µM) | 25 (≈ 95 µM) |  | 12.5 (≈ 47.5 µM) |  | 12.5 (≈ 47.5 µM) | 25 (≈ 95 µM) | 25 (≈ 95 µM)
COc1ccc2[nH]cc(CNC(=O)c3ccc4c(c3)OCCCO4)c2c1 |  | > 100 | 25 (≈ 70.9 µM) |  | 50 (≈ 142 µM) |  | 50 (≈ 142 µM) | 25 (≈ 70.9 µM) | 50 (≈ 142 µM)
O=C(Nc1cc(Cl)cc2cccnc12)c1ccc2c(c1)OCCCO2 | > 10 | 12.5 (≈ 35.2 µM) | 12.5 (≈ 35.2 µM) | 115 | 3.13 (≈ 8.82 µM) | 4.9 | 3.13 (≈ 8.82 µM) | 1.56 (≈ 4.4 µM) | 1.56 (≈ 4.4 µM)
O=C(Nc1ccc(C(F)(F)F)cn1)c1ccc2c(c1)OCCCO2 | > 10 | 25 (≈ 73.9 µM) | > 100 | 204 | 50 (≈ 148 µM) | 8.6 | 6.25 (≈ 18.5 µM) | 3.13 (≈ 9.25 µM) | 6.25 (≈ 18.5 µM)
CC1(CCCNC(=O)c2ccc3c(c2)OCCCO3)N=N1 |  |  | 25 (≈ 86.4 µM) |  | 25 (≈ 86.4 µM) |  |  | 12.5 (≈ 43.2 µM) | 25 (≈ 86.4 µM)
Cc1ccc2cccc(NC(=O)c3ccc4c(c3)OCCCO4)c2n1 |  | 25 (≈ 74.8 µM) | 25 (≈ 74.8 µM) |  | 12.5 (≈ 37.4 µM) |  | 50 (≈ 150 µM) | 12.5 (≈ 37.4 µM) | 12.5 (≈ 37.4 µM)

Structure (SMILES) | HC30 (Erythrocyte) [µg/mL] | MIC (Streptococcus pneumoniae) [µg/mL] | MIC (Bacillus subtilis) [µg/mL] | IC50 at 24 h [1] [µM] | MIC (Staphylococcus aureus) [µg/mL] | IC50 [2] [µM] | MIC (Klebsiella pneumoniae) [µg/mL] | MIC (Escherichia coli) [µg/mL] | MIC (Pseudomonas aeruginosa) [µg/mL]
C#CCCC1(CCNC(=O)c2ccc3c(c2)OCCCO3)N=N1 |  |  | 6.25 (≈ 19.9 µM) |  | 6.25 (≈ 19.9 µM) |  |  | 6.25 (≈ 19.9 µM) | 6.25 (≈ 19.9 µM)
CCN1CCN(C(=O)c2ccc3c(c2)OCCCO3)CC1 |  | 50 (≈ 172 µM) | > 100 |  | 25 (≈ 86.1 µM) |  | 50 (≈ 172 µM) | 25 (≈ 86.1 µM) | 50 (≈ 172 µM)
O=C(Nc1cccnc1)c1ccc2c(c1)OCCCO2 |  | 50 (≈ 185 µM) | > 100 |  | 50 (≈ 185 µM) |  | 25 (≈ 92.5 µM) | 25 (≈ 92.5 µM) | 50 (≈ 185 µM)
NC[C@H]1O[C@H](O[C@H]2[C@H](O)[C@@H](O[C@H]3O[C@H](CO)[C@@H](O)[C@H](N)[C@H]3O)[C@H](N)C[C@@H]2N)[C@H](N)[C@@H](O)[C@@H]1O [BEKANAMYCIN] |  | 50 (≈ 103 µM) | 1.56 (≈ 3.23 µM) |  | 1.56 (≈ 3.23 µM) |  | 3.13 (≈ 6.47 µM) | 3.13 (≈ 6.47 µM) | 3.13 (≈ 6.47 µM)
COc1ccc(NC(=O)c2ccc3c(c2)OCCCO3)c2ncccc12 |  | 50 (≈ 143 µM) | > 100 |  | > 100 |  | > 100 | > 100 | 50 (≈ 143 µM)
COc1cc(NC(=O)c2ccc3c(c2)OCCCO3)c2ncccc2c1 |  | > 100 | > 100 |  | 50 (≈ 143 µM) |  | 50 (≈ 143 µM) | 50 (≈ 143 µM) | 50 (≈ 143 µM)
O=C(Nc1nccc2ccccc12)c1ccc2c(c1)OCCCO2 |  | > 100 | > 100 |  | 50 (≈ 156 µM) |  | 25 (≈ 78 µM) | 50 (≈ 156 µM) | 50 (≈ 156 µM)
O=C(Nc1cncc(Cl)n1)c1ccc2c(c1)OCCCO2 |  | 50 (≈ 164 µM) | 25 (≈ 81.8 µM) |  | 25 (≈ 81.8 µM) |  | 25 (≈ 81.8 µM) | 25 (≈ 81.8 µM) | 25 (≈ 81.8 µM)
O=C(c1ccc2c(c1)OCCCO2)N1CCCCC1 |  | 25 (≈ 95.7 µM) | 12.5 (≈ 47.8 µM) |  | 25 (≈ 95.7 µM) |  | 25 (≈ 95.7 µM) | 25 (≈ 95.7 µM) | 25 (≈ 95.7 µM)
O=C(NCCc1nc2ccccc2[nH]1)c1ccc2c(c1)OCCCO2 |  | 50 (≈ 148 µM) | 25 (≈ 74.1 µM) |  | > 100 |  | > 100 | 25 (≈ 74.1 µM) | 50 (≈ 148 µM)
O=C(Nc1ccc2ccccc2n1)c1ccc2c(c1)OCCCO2 |  | 25 (≈ 78 µM) | 25 (≈ 78 µM) |  | 25 (≈ 78 µM) |  | 50 (≈ 156 µM) | 25 (≈ 78 µM) | 25 (≈ 78 µM)
O=C(c1ccc2c(c1)OCCCO2)N1CCN(C(=O)c2ccc3c(c2)OCCCO3)CC1 |  | > 100 | 50 (≈ 114 µM) |  | > 100 |  | > 100 | > 100 | > 100
O=C(c1ccc2c(c1)OCCCO2)N1CCN(Cc2ccccc2)CC1 |  | 25 (≈ 70.9 µM) | > 100 |  | 50 (≈ 142 µM) |  | 25 (≈ 70.9 µM) | 50 (≈ 142 µM) | 50 (≈ 142 µM)
CCOC(=O)c1c(NC(=O)c2ccc3c(c2)OCCCO3)sc2c1CCCC2 |  | 50 (≈ 125 µM) | 50 (≈ 125 µM) |  | > 100 |  | 50 (≈ 125 µM) | > 100 | 50 (≈ 125 µM)
Cc1ccc(NC(=O)c2ccc3c(c2)OCCCO3)cn1 |  | > 100 | > 100 |  | 50 (≈ 176 µM) |  | > 100 | 25 (≈ 87.9 µM) | 50 (≈ 176 µM)
